The values below come from US20090036497A1, “ECTOPARASITE CONTROL METHOD” (priority 2007, published 2009).

One data set concerns adult H. irritans exigua. The data set can be described thus: Adult H. irritans exigua feeding assay (blood meal assay). It counts as in vivo. As for the experimental part:
Adult H. irritans exigua Feeding Assay
A blood meal assay was used to determine the LC50 for test compound (3-bromo-1-(3-chloro-2-pyridinyl)-N-[4-cyano-2-methyl-6-[(methylamino)carbonyl]phenyl]-1H-pyrazole-5-carboxamide) on adult H.irritans exigua. Six (6) serial dilutions of the test compound were prepared in decoagulated bovine blood that was stored refrigerated. Ivermectin was included as a positive control compound and a negative control was included in each assay. Flies were collected with a net immediately before each assay from yarded commercial cattle. About 100 adults were introduced into a mesh cage (30×30×30 cm) containing one cotton gauze (4×4×1 cm) soaked in one blood/insecticide concentration. There were 3 replicate cages of each blood/insecticide concentration. Blood gauzes were replaced every 12 hours. The untreated control cages received untreated decoagulated blood. All cages were labelled and stored for 72 hours at 25-27° C. in the dark at ambient relative humidity (70-85%). […] Data was subjected to log-probit analysis to determine the LC50 if there is a dose response in the assay.

In data set [1] the test system is cat flea (Ctenocephalides felis Bouche). Briefly: In vivo evaluation against artificial infestations with cat fleas on mice. The following applies: CD-1 mouse, 10 mg/kg oral in propylene glycol/glycerol formal (60:40), fleas applied 2 hours after dosing, evaluated 48 hours after flea application. As for the experimental part:
In vivo Evaluation Against Artificial Infestations With Cat Fleas (C. felis) on Mice
For evaluating control of the cat flea (Ctenocephalides felis Bouche), a CD-1® mouse (about 30 g, male, obtained from Charles River Laboratories, Wilmington, Mass.) was orally dosed with test compound in an amount of 10 mg/kg solubilized in propylene glycol/glycerol formal (60:40). Two hours after oral administration of the test compound, approximately 8 to 16 adult fleas were applied to each mouse. The fleas were then evaluated for mortality 48 hours after flea application to the mouse. 3-bromo-1-(3-chloro-2-pyridinyl)-N-[4-cyano-2-methyl-6-[(methylamino)carbonyl]phenyl]-1H-pyrazole-5-carboxamide caused 45% mortality.

For the next data set, the system named is Cat Fleas (C. felis). Briefly: In vivo evaluation against artificial infestations with cat fleas on dogs. As to conditions: for Flea efficacy compared to the untreated control: topical line-on (test compound 60 mg/kg in NMP); for Flea efficacy (%) compared to the untreated control: topical line-on, test compound 60 mg/kg in NMP. An excerpt:
(§1) In vivo evaluation Against Artificial Infestations With Cat Fleas (C. felis) and Brown Dog Ticks (R. sanguineus) on Dogs
(§2) Twenty five dogs were used in this study that investigated the efficacy of test compound (3-bromo-1-(3-chloro-2-pyridinyl)-N-[4-cyano-2-methyl-6-[(methylamino)carbonyl]phenyl]-1H-pyrazole-5-carboxamide) against fleas and ticks. Two groups (one treated and one untreated) of five dogs were used to evaluate the flea efficacy whilst two groups of five dogs (one treated and one untreated) were used to investigate the tick efficacy. The dogs in the respective groups were infested weekly with 40 unfed adult ticks and 100 cat fleas. One group was treated with ADVANTIX and served as a positive control. The dogs in this group were infested simultaneously with fleas and ticks. Test compound was formulated in NMP. The treatment was applied topically via syringe on the dorsal line of the animals as a line-on at 60 mg/kg dose rate. The efficacy of the compound was assessed by weekly tick and flea counts. The weekly counts generated in the treated groups were compared to the positive and negative untreated control (UTC) group counts to evaluate efficacy of Test compound.

Data set [2] has as its system Brown Dog Ticks (R. sanguineus). The data set can be described thus: In vivo evaluation against artificial infestations with brown dog ticks on dogs. As to conditions: for Tick efficacy (%) compared to the untreated control: topical line-on, test compound 60 mg/kg in NMP.
Text: as §1, §2

Where [3] appears, read: 200 ppb in bovine blood, exposure time 7 hr.
Setting [4] is: 200 ppb in bovine blood, exposure time 17 hr.
The mark [5] stands for this setting: 200 ppb in bovine blood, exposure time 24 hr.
Setting [6] is: 400 ppb in bovine blood, exposure time 7 hr.
The mark [7] stands for this setting: 400 ppb in bovine blood, exposure time 17 hr.
Where [8] appears, read: 400 ppb in bovine blood, exposure time 24 hr.
[9] abbreviates: 600 ppb in bovine blood, exposure time 7 hr.
The mark [10] stands for this setting: 600 ppb in bovine blood, exposure time 17 hr.
Where [11] appears, read: 600 ppb in bovine blood, exposure time 24 hr.

With `CNC(=O)c1cc(C#N)cc(C)c1NC(=O)c1cc(Br)nn1-c1ncccc1Cl` [Test compound, 3-bromo-1-(3-chloro-2-pyridinyl)-N-[4-cyano-2-methyl-6-[(methylamino)carbonyl]phenyl]-1H-pyrazole-5-carboxamide], the “% Adult mortality” value was found to be 77.3% with adult H. irritans exigua (setting [3]); 78.8% with adult H. irritans exigua (setting [4]); 80.3% in the data set with adult H. irritans exigua (setting [5]); 78.8% in the data set on adult H. irritans exigua (setting [6]); 89.8% in the data set on adult H. irritans exigua (setting [7]); 94.9% in the data set with adult H. irritans exigua (setting [8]). Moreover, the “% Adult mortality” value in the data set with adult H. irritans exigua (setting [9]) was found to be 80.5%; with adult H. irritans exigua (setting [10]) it was 94.7%; in the data set with adult H. irritans exigua (setting [11]), 96.5%. For the same compound, in data set [1], the flea mortality is 45%. Moreover, the “Flea efficacy compared to the untreated control” value in the data set with Cat Fleas (C. felis) (2 days post-treatment) is given as “over 99.5%”; in the data set on Cat Fleas (C. felis) (9 days post-treatment), “over 99.5%”; in the data set on Cat Fleas (C. felis) (16 days post-treatment), “over 99.5%”; with Cat Fleas (C. felis) (30 days post-treatment), 97.3%. The “Flea efficacy (%) compared to the untreated control” value is reported as 99.6% in the data set on Cat Fleas (C. felis) (Day 2); 99.7% in the data set with Cat Fleas (C. felis) (Day 9); 99.7% in the data set with Cat Fleas (C. felis) (Day 16); 98.7% in the data set on Cat Fleas (C. felis) (Day 23); 97.3% in the data set with Cat Fleas (C. felis) (Day 29). Further, in data set [2] (48 hours after treatment, difference to ADVANTIX), the “Tick efficacy higher than the ADVANTIX” value turned out to be 30%. For the same compound, the “Tick efficacy compared to the negative control” value in data set [2] (topical line-on (test compound 60 mg/kg in NMP), 48 hours after treatment) stood at 74%. In addition, the “Tick efficacy compared to the untreated control” value is recorded as “over 94.9%” in data set [2] (topical line-on (test compound 60 mg/kg in NMP), 9 days post-treatment); 90.5% in data set [2] (topical line-on (test compound 60 mg/kg in NMP), 16 days post-treatment); 90.6% in data set [2] (topical line-on (test compound 60 mg/kg in NMP), 23 days post-treatment); 86.2% in data set [2] (topical line-on (test compound 60 mg/kg in NMP), 30 days post treatment). Further, the “Tick efficacy (%) compared to the untreated control” value in data set [2] (Day 2) amounted to 74.0%; in data set [2] (Day 9), 94.9%; in data set [2] (Day 16) it was 95.0%; in data set [2] (Day 23) it was 90.6%; in data set [2] (Day 29), 86.2%.
For “22,23-dihydroavermectin B1 [Ivermectin, reference compound]”, the “% Adult mortality” value is given as 78.5% in the data set with adult H. irritans exigua (setting [3]); 91.8% with adult H. irritans exigua (setting [4]); 93.1% in the data set on adult H. irritans exigua (setting [5]); 80.1% with adult H. irritans exigua (setting [6]); 94.2% in the data set with adult H. irritans exigua (setting [7]); 98.0% in the data set on adult H. irritans exigua (setting [8]). Besides, the “% Adult mortality” value in the data set on adult H. irritans exigua (setting [9]) is recorded as 86.0%; in the data set with adult H. irritans exigua (setting [10]) it was 95.5%; in the data set with adult H. irritans exigua (setting [11]), 100.0%.
